Here are results for 2 molecules from patent US20200129535A1, “DESMOCOLLIN 1 INHIBITORS FOR THE PREVENTION OR TREATMENT OF ATHEROSCLEROSIS” (priority 2017, published 2020).

Read-outs that look alike come from different tables or passages of the source.

This test deals with Primary human skin fibroblasts. Briefly: apoA-I-mediated cholesterol efflux study (promotion of HDL biogenesis) with compounds. The settings on record: for EC50: Homo sapiens, Skin fibroblast, [3H]-cholesterol-labelled, cholesterol-loaded fibroblasts, 5 μg/ml apoA-I for 24 h, compound added during equilibration and apoA-I treatment. Format: cell-based. The method, then: FIGS. 17(A) to 17(C) show rutin (A), acarbose (B) and docetaxel (C) can promote apoA-I-mediated cholesterol efflux. Primary human skin fibroblasts were labelled with 0.2 μCi/ml of [^3H]-cholesterol during growth, loaded with 30 μg/ml of unlabeled cholesterol for 24 h, equilibrated for 24 h, and treated with 5 μg/ml of apoA-I for 24 h to determine efflux of cellular cholesterol by apoA-I. The indicated concentrations of rutin, acarbose and docetaxel were added during the equilibration and apoA-I treatment period. Results are expressed as percentage of total (cell plus medium) [^3H]-sterol appearing in the medium. Values are the mean+SD of quadruplicate determinations. One-way analysis of variance with Dunnett's post-hoc correction was performed to calculate multiplicity-adjusted P values. *P<0.05; **P<0.001; ***P<0.0001 compared with the group treated with apoA-I alone.
To investigate the biological activity of the 51 compounds identified in Example 3 in modulating HDL biogenesis, we performed an apoA-I-mediated cholesterol efflux study as described previously (see Choi, H. Y. et al., J Biol Chem 278, 32569-32577 (2003)).

As for `C[C@H]1O[C@H](O[C@H]2[C@H](O)[C@@H](O)[C@@H](O[C@H]3[C@H](O)[C@@H](O)C(O)O[C@@H]3CO)O[C@@H]2CO)[C@H](O)[C@@H](O)[C@@H]1N[C@H]1C=C(CO)[C@@H](O)[C@H](O)[C@H]1O` (stereo partly shown) [No. 2, Acarbose], under “read-out: EC50 value, promotion of apoA-I-mediated HDL biogenesis”, the EC50 turned out to be 6.59 µM.
`CC(=O)O[C@@]12CO[C@@H]1C[C@H](O)[C@@]1(C)C(=O)[C@H](O)C3=C(C)[C@@H](OC(=O)[C@H](O)[C@@H](NC(=O)OC(C)(C)C)c4ccccc4)C[C@@](O)([C@@H](OC(=O)c4ccccc4)[C@H]21)C3(C)C` [No. 17, Docetaxel]: the “effect on apoA-I-mediated cholesterol efflux” value (FIG. 17, compared with the group treated with apoA-I alone) was “promote”. In addition, under “read-out: half-maximal effective concentration (EC50), promotion of apoA-I-mediated HDL biogenesis”, the EC50 is 0.00072 µM. Further, the “potency rank in promoting HDL biogenesis among the 3 most active compounds” value (dose-response curves, FIG. 17) is reported as “most potent”.
